Source: patent US20130236445A1, “Bromelain proteinases (Bromelainases) as chemotherapeutic agents in treating and/or preventing various types of cancer in a mammal” (Garfield Medical Group, priority 2011, published 2013)

Tests used:
TNFα, II-2 = settings: in vitro; cited from earlier work
CD44 = settings: in vitro; cited from earlier work
tumor cells = settings: in vitro; cited from earlier work
tumor cell [1] = settings: in vitro; cited from earlier work
tumor cell [2] = settings: in vitro; cited from earlier work; remark: listed apart in the source
[3] = examination of internal organs of bromelain-treated rabbits; set-up: species or system white rabbits; settings: rabbit, in vivo
Procedure: One half of each organ was frozen and the other half was fixed with 10% neutral buffered formalin for 24 hours. Then the fixed organs were washed […] stepwise dehydrated with 70%, 80%, 90%, 100% ethanol and then embedded in paraffin by using Shandon-Histocentre-2. The embedded organ blocks were sectioned in 4 µm thickness with a microtome (McBain, M 820, American Optical Co. USA) and stained with hematoxylin and eosin stain (H.E. stain). The stained specimens were made transparent with xylene, and mounted with permount on microslides.

[4] = rabbit, in vivo
Procedure: After 8 weeks of treatment, the rabbits were anesthetized with injections of ketamine 75 mg/kg in the femoral muscle and sacrificed. Blood samples were collected from the heart of each rabbit to determine the blood analysis consisting of: complete blood count (CBC), Chemistry-7 and 24, (including Liver and renal function tests), lipid profiles (including Total cholesterol, HDL, LDL, VLDL, and triglycerides), coagulation factors consisting of; prothrombin time (PT), partial thromboplastin time (PPT), and immune-globulin-E.
All laboratory blood analysis were performed on rabbits of all 7 groups, The results were tested using student t-test and Microsoft Excel-7 programs.

Substance	secretion of TNFα, II-2, effect (TNFα, II-2)	CD44 expression on metastatic cells, effect (CD44)	immunocytotoxicity of lymphocytes against tumor cells, effect (tumor cells)	tumor cell proliferation, effect (tumor cell [1])	tumor cell invasion through extracellular matrix, effect (tumor cell [2])	internal organs, microscopic examination (H.E. stain) [3]	GGTP [4]	HDL [4]	Hb [4]	SGOT [4]	SGPT [4]	TC (total cholesterol) [4]	TRG (triglycerides) [4]	WBC [4]	laboratory blood tests, differences between groups [4]
Ananain [Bromelain F9]	↑	↓	↑	↓	=	–	–	–	–	–	–	–	–	–	–
Bromelain	–	–	–	–	–	no pathological abnormalities or lesions	7+—1	43.6+—16.5 mg/	11.9+—1.9 gm/dl	110.8+—30.7 u/l	71.2+—3.8 u/l	175.6+—36.8 mg/dl	92.6+—38.8 mg/dl	7.3+—2.2 k/ul	no differences among or within each groups
Stem bromelain [Bromelain F4]	–	–	–	–	=	–	–	–	–	–	–	–	–	–	–
